# Calls of active or inactive are those of the source.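 How the source made its calls: active means EC50 of 10 µM or lower; inactive means EC50 above 10 µM.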
# Target: Trace amine-associated receptor 1 (Homo sapiens) (UniProt Q96RJ0)
# Test: activators of human TAAR1 receptor – cell-based, fluorescence, MDRUN002, late-stage follow-up (AID 1053177)
# Conditions: CHO TAAR1-HGA16 cells, cAMP TR-FRET, agonist
# Chain of Trace amine-associated receptor 1 (Homo sapiens) (Q96RJ0 whole entry, looked up): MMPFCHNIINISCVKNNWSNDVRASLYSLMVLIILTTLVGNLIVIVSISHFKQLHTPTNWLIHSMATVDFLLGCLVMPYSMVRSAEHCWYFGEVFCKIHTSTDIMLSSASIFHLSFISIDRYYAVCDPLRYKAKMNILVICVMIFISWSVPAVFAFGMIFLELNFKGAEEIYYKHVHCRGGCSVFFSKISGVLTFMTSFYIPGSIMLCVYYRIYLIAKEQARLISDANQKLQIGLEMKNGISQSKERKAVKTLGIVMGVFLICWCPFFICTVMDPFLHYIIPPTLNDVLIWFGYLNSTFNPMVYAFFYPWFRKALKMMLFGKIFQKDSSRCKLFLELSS
row,Compound,EC50
1,COc1cc(C(=O)CCN2CCC(c3ccccc3)C2)cc(OC)c1OC (configuration not stated),131 nM
2,Cc1ccc(C(=O)CCN2CCC(c3ccccc3)C2)cc1 (configuration not stated),335 nM
3,CC(CN1CCCC1Cc1ccccc1)C(=O)c1ccc2c(c1)OCCO2 (configuration not stated),438 nM

# The remaining lines, values ahead:
row,EC50,Compound
1,97.3 nM,O=C(CCN1CCC(c2ccccc2)C1)c1ccccc1 (configuration not stated)
2,> 37400 nM (inactive),N#Cc1c(C(F)(F)F)cc(-c2ccc(Cl)cc2)nc1SCC(=O)N1CCCC1
3,> 37400 nM (inactive),N#Cc1c(C(F)(F)F)cc(-c2ccc(Cl)cc2)nc1SCC(=O)Nc1ncccn1
4,> 37400 nM (inactive),N#Cc1c(C(F)(F)F)cc(-c2ccc(Cl)cc2)nc1SCC(=O)N1CCCCCC1
